# Measured values from patent US12655132B2, “Crystal forms of a pyridazinone TRPC inhibitor” (GFB (ABC), LLC, priority 2019, dated 2026).
# Test: Stability of crystalline form E at different relative humidities over 3-14 days
# Format: physicochemical
# Protocol: Crystalline form E was also tested for stability at different relative humidities over 3-14 days. The results are shown below in Table 3.1
smiles,measurement,setting,value
"O=c1[nH]ncc(N2CCc3c(ncnc3Oc3ccc(F)cc3C(F)(F)F)C2)c1Cl [Crystalline Form E, 4-chloro-5-(4-(4-fluoro-2-(trifluoromethyl)phenoxy)-5,8-dihydropyrido[3,4-d]pyrimidin-7(6H)-yl)pyridazin-3(2H)-one]",Stability of Crystalline Form E at Different Relative Humidities (RH): crystal type found,"30% RH, 3 days",Type E
same,Stability of Crystalline Form E at Different Relative Humidities (RH): crystal type found,"30% RH, 7 days",Type E
same,Stability of Crystalline Form E at Different Relative Humidities (RH): crystal type found,"30% RH, 14 days",Type E + Type F
same,Stability of Crystalline Form E at Different Relative Humidities (RH): crystal type found,"50% RH, 3 days",Type E
same,Stability of Crystalline Form E at Different Relative Humidities (RH): crystal type found,"50% RH, 7 days",Type E
same,Stability of Crystalline Form E at Different Relative Humidities (RH): crystal type found,"50% RH, 14 days",Type E
same,Stability of Crystalline Form E at Different Relative Humidities (RH): crystal type found,"60% RH, 3 days",Type E
same,Stability of Crystalline Form E at Different Relative Humidities (RH): crystal type found,"60% RH, 7 days",Type E
same,Stability of Crystalline Form E at Different Relative Humidities (RH): crystal type found,"60% RH, 14 days",Type E
same,Stability of Crystalline Form E at Different Relative Humidities (RH): crystal type found,"92.5% RH, 3 days",Type E
same,Stability of Crystalline Form E at Different Relative Humidities (RH): crystal type found,"92.5% RH, 7 days",Type E
same,Stability of Crystalline Form E at Different Relative Humidities (RH): crystal type found,"92.5% RH, 14 days",Type E
same,Stability at low relative humidity (conclusion in words),"storage for 14 days at 30% relative humidity, appearance of Type F",unstable
